Laboratory results from patent publication US10053455B2, “Diazaspiroalkaneone-substituted oxazole derivatives as spleen tyrosine kinase inhibitors” (AB SCIENCE, priority 2014, dated 2018).
Read-outs that look alike come from different tables or passages of the source.

Legend:
[1] = target: SYK kinase (Homo sapiens (Human), UniProt P43405); experiment: In vitro SYK inhibition assay (HTRF kinase assay); type: biochemical
Protocol: SYK kinase was purified as a full length protein in a baculovirus system near homogeneity. All kinase assays were performed with the Kinase TK (tyrosine kinase) HTRF (Homogeneous Time Resolved Fluorescence) assay developed by Cisbio international. […] Reactions were initiated upon introduction of the enzyme and terminated with the addition of one reaction volume (25 μl) of HTRF detection buffer. Plates were incubated for one hour at room temperature and the time resolved Fluorescence resonance energy transfer signal was measured in a Pherastar FS microplate reader (BMG Labtech).
(§1) Most of the kinases tested in this study were cloned, expressed and purified in the facilities of the inventors. They were expressed either as N-terminus hexahistidine-, hexahistidine-asparagine- or GST-tagged enzymes in a baculovirus or in a Colibacille expression system. Remaining enzymes (JAKs) were purchased from Millipore or Proqinase. For each enzyme, steady state kinetic parameters were determined and validated with known inhibitors.
(§2) The analysis of the effect of compounds on kinase activity was assessed with the HTRF® KinEASE assay (Cisbio International), an immuno-assay based on the quantification of the level of phosphorylation of a biotinylated peptide substrate using anti-phospho-specific antibody labeled with Europium (Eu^3+) cryptate. This assay comprises two steps: —an enzymatic step, during which the peptide substrate, the kinase, ATP, Mg^2+ and/or Mn^2+ are incubated with varying concentration of drug (from 0 to 10 μM); —a detection step, at the end of the reaction (stopped by addition of EDTA which chelates Mg^2+), the antibody anti-phospho peptide-Eu^3+ (emission 620 nm) and streptavidin XL-665 (emission 665 nm) are added to the reaction mix. After incubation, the obtained signal is proportional to the concentration of phosphorylated peptide in the sample. All measurements were performed on a BMG Labtech Pherastar FS apparatus. Results are expressed in delta fluorescence (DF) unit defined as follow DF %=[(ratio−ratio blank)/(ratio blank)]*100, where ratio=(665 nm/620 nm)*10^4. Each experiment was performed in duplicate and repeated two or three times.

[2] = target: c-Ret WT (Homo sapiens (Human), UniProt P07949); experiment: HTRF kinase assay, c-Ret WT; type: biochemical; conditions: enzymatic determination
Protocol: as §1
as §2, with “After incubation, the obtained signal is proportional to the concentration of phosphorylated peptide in the sample. All measurements were performed on a BMG Labtech Pherastar FS apparatus.” left out, “Each experiment was performed in duplicate and repeated two or three times.” left out

[3] = target: Btk (Homo sapiens (Human), UniProt Q06187); experiment: HTRF kinase assay, Btk; type: biochemical; conditions: enzymatic determination
Protocol: as §1
as §2, with “After incubation, the obtained signal is proportional to the concentration of phosphorylated peptide in the sample. All measurements were performed on a BMG Labtech Pherastar FS apparatus.” left out, “Each experiment was performed in duplicate and repeated two or three times.” left out

[4] = tested on: murine model of asthma; experiment: Mouse model of asthma: eosinophils recruitment in bronchio-alveolar lavage; type: in vivo, Balb/c male mice
Protocol: (§3) Balb/c male mice, 8 weeks old, were purchased from Janvier (Le Genest-Saint-Isle; FRANCE) and bred in the animal facility for 4 weeks. Drugs were dissolved in drinking solvent (80% water; 10% Tween 80 and 10% isopropanediol). It was aliquoted and stored at −20° C. Each mouse received drugs twice a day. The weight of animals was calculated before and after treatment.
(§4) Mice, 9 weeks of age, were sensitized with 50 μg of ovalbumin (Sigma-Aldrich, Germany) adsorbed to 2 mg Al(OH)3 (Prolabo, France) and diluted in physiological saline (0.9% NaCl). Ovalbumin was injected intraperitoneally on days 1 and 7. Sensitization was followed by intranasal challenges with 10 μg of ovalbumin diluted in 0.9% NaCl, each day from day 18 to day 21. On days 17 to 21, animals treated with drugs received 100 μl of a solution at 15 mg/ml, at 7.5 mg/ml or at 3.75 mg/ml administered per os twice a day during 5 days. These treatments corresponded to concentration of 60 mg/mouse kg, 30 mg/mouse kg and 15 mg/mouse kg respectively.
Bronchio-alveolar lavage (BAL) was performed after the animals were disconnected from the FlexiVent®. The airways were lavaged with 5 ml (10 times 0.5 ml) ice cold 0.9% NaCl 2.6 mM EDTA. BAL samples were centrifuged at 1200 rpm for 5 minutes at 4° C. Pellet cells were collected and erythrocytes lysed by adding 1.5 ml deionized water for 30 seconds. After neutralization with 0.5 ml of 0.6M KCl, cells were centrifuged at 1200 rpm for 5 minutes at 4° C. BAL samples were used to count the total cell number and to perform cytospins (shandon, Pontoise). Cell types were identified by morphological criteria after Hemacolor (Merck) staining.
Mice were sensitized and challenged with ovalbumin as described in protocol assays above. The mice were distributed in groups of 5-6 animals that were treated twice daily with 7.5 to 60 mg/Kg of anti-SYK/KIT drugs (PO).

[5] = tested on: murine model of asthma; experiment: Mouse model of asthma: airway responsiveness (FlexiVent); type: in vivo, Balb/c male mice; conditions: ovalbumin-sensitized mice, PO twice daily
Protocol: as §3, §4
The airway responsiveness was measured using the invasiveness FlexiVent® (SCIREQ) technique. […] The baseline values were measured after saline solution nebulization and airway hyperresponsiveness evaluated after nebulization of a 0.26M metacholine solution (50 mg/ml).

[6] = tested on: Myeloperoxidase (MPO); experiment: Myeloperoxidase activity in K/BxN arthritis model; type: in vivo, C57Bl/6 mice
Protocol: K/B×N serum pools were prepared from arthritic mice at 8 weeks of age. The mice were pre-treated with SYK inhibitors by two per os administration for two days before induction of arthritis. Arthritis was induced in the C57Bl/6 mice (8 weeks of age) by intraperitoneal injection (7.5 μl serum per g weight) at days 0 and 2.
The treatment with SYK inhibitors was continued for 13 days. The control mice were injected with solvent before the induction of arthritis and during the course of the disease. The compounds were dissolved in a solution containing 10% of Tween 80 and 10% 1-2 propandiol. It was prepared before administration.
MPO activity was determined following published protocol (American Journal of Pathology, (2000), 156 (6):2169-2177). Briefly, tissue samples were weighed and suspended in 50 mmol/L potassium phosphate buffer (pH 6.0) containing 5 mg/ml hexadecyltrimethylammonium bromide (Sigma Chemical Co.) at a ratio of 50 mg tissue to 1 ml of buffer. […] Using a microtiter plate scanner, 200 μl of the reaction mixture (containing 16.7 mg of o-dianisidine (Sigma Chemical Co.), […] of distilled H2O, […] of potassium-phosphate buffer, and 50 μl of 1% H2O2) was added to each well containing 7 μl of sample in a standard 96-well plate and three absorbance readings at 5 min intervals at 450 nm were recorded.

Chain of Btk (Q06187 whole entry, species assumed): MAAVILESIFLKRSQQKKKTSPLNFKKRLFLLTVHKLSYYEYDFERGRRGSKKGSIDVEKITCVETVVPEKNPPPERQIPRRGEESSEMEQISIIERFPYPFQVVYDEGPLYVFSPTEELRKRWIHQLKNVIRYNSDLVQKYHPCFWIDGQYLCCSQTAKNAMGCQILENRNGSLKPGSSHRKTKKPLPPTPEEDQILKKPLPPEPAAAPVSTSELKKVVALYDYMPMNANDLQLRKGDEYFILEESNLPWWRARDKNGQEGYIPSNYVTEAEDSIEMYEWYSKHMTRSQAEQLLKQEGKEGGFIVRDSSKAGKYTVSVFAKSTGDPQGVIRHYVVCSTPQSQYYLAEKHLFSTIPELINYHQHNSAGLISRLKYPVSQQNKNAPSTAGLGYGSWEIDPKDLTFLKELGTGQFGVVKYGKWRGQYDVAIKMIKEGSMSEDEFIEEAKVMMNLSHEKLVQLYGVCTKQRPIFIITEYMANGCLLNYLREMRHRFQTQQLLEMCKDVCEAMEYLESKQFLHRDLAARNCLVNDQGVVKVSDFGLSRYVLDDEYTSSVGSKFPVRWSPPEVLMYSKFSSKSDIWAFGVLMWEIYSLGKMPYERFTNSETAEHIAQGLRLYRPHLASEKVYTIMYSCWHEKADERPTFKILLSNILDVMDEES
Chain of c-Ret WT (P07949 29-1114): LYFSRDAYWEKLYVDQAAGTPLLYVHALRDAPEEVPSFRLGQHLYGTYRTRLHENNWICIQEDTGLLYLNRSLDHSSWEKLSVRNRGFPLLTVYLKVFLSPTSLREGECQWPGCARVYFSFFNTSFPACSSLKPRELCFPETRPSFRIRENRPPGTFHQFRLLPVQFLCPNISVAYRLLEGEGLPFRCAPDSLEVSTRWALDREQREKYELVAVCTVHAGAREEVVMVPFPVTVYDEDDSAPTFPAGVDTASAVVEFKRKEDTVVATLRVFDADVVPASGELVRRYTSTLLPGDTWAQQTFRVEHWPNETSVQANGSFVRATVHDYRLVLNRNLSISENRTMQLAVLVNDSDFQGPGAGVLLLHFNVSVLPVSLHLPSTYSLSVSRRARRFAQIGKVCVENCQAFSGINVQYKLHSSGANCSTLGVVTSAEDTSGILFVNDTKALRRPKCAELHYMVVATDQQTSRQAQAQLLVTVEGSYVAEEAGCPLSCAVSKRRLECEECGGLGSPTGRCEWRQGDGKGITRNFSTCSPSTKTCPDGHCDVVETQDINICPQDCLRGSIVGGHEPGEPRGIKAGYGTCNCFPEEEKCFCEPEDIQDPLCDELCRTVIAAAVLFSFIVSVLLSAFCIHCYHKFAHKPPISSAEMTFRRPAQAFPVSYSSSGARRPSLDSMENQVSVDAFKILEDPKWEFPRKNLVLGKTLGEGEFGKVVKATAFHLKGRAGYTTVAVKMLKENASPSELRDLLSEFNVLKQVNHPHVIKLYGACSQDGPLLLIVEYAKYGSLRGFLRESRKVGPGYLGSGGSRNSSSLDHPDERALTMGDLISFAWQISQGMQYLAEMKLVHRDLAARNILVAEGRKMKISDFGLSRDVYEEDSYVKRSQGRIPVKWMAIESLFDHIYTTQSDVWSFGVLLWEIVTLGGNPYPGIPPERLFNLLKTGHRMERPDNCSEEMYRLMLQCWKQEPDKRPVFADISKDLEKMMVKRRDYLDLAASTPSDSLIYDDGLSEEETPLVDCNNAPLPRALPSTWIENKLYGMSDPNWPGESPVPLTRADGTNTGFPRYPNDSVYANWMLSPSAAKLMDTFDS

For `Cc1ccnc(Nc2cccc(-c3cnc(N4CCNC(=O)C45CC5)o3)c2)n1` [Compound 001, 4-{5-[3-(4-Methyl-pyrimidin-2-ylamino)-phenyl]-oxazol-2-yl}-4,7-diaza-spiro[2.5]octan-8-one], the IC50 ([1]; enzymatic determination, read-out: Kinase activity profile IC50 Syk) was 0.041 µM, the IC50 ([1]; read-out: Syk (IC50)) was under 0.5 µM and the IC50 [2] was 10 µM. For the same molecule, the IC50 [3] was 20 µM, the “Percentage of Eosinophils recruitment in Bronchio-alveolar lavage (BAL)” value ([4]; Experiment #2, 2 × 15 mg/kg/day PO) was −14% and the “Percentage of Eosinophils recruitment in Bronchio-alveolar lavage (BAL)” value ([4]; Experiment #2, 2 × 30 mg/kg/day PO) was −47%. For the same molecule, the bronchial hyper-responsiveness [5] was “reduced bronchial hyper-responsiveness in a dose-dependent manner”, the MPO activity ([6]; KBxN + 15 mg/kg b.i.d.) was 1.031 ± 0.24 U/ml and the MPO activity ([6]; KBxN + 50 mg/kg b.i.d.) was 0.348 ± 0.08 U/ml.
